Experimental data as given in patent US20070104774A1, “Method for preparing phytosphingosine liposome composition” (priority 2003, published 2007).

Experiments:
[1] = cited from earlier work
[2] = Stability test of water lotion formulation of phytosphingosine liposome: size and sedimentation on storage at R.T. and low temperature; format: physicochemical; conditions: dissolved using an acid only such as lactic acid; as time went by and at low temperatures
Protocol: For a liposome solution containing 4 wt. % of phytosphingosine prepared according to Examples 3 and 7 and a solution in which the liposome solution was diluted so as to make a final concentration of phytosphingosine be 0.5% in a water lotion product, it was examined a stability of phytosphingosine liposome in water lotion formulation, based on sizes and sedimentation states as time went by and sizes and sedimentation states when storing at R.T. and a low temperature, respectively. Water lotion formulations used in the above test are as follows. The unit is wt. %. In water lotion formulations of liposome containing phytosphingosine, results of size variations as time went by are as follows. The unit is nm.

behaviour on storage [2]: recrystallized
SMILES: CCCCCCCCCCCCCC[C@@H](O)[C@@H](O)[C@@H](N)CO [phytosphingosine]
solubility in isocetyl alcohol ([1]; isocetyl alcohol solvent): 1 wt. %
solubility in water ([1]; water): never dissolved in water
